Among the data in patent US5786371A, “Pyridine and pyridazine derivatives, processes for the production thereof and pharmaceutical agents containing these compounds” (Boehringer Mannheim GmbH, priority 1995, dated 1998) are IC50 values, retold here.

Read-outs that look alike come from different tables or passages of the source.

What is called IC50 is the concentration at which inhibition is half-maximal.

The target of the assay is GpIIb/IIIa receptor (Homo sapiens, UniProt P05106+P08514). Briefly: GpIIb/IIIa-Fibrinogen-Elisa (inhibition of fibrinogen-GpIIb/IIIa interaction). Format: binding. The note with it: 1 hour incubation, optical density at 405 nm. As for the experimental part: Microtitre plates are coated overnight with 2 μg/ml isolated activated GpIIb/IIIa receptor. After removing the unbound receptor by washing several times, the surface of the plates is blocked with 1% casein and washed again. The test substance is added in the required concentrations and the plates are incubated for 10 minutes while shaking. The natural ligand of the gpIIb/IIIa receptor, fibrinogen, is added. After 1 hour of incubation the unbound fibrinogen is removed by washing several times and the bound fibrinogen is determined by a peroxidase-conjugated anti-fibrinogen monoclonal antibody by measuring the optical density at 405 nm in an ELISA instrument. Inhibition of a fibrinogen-GpIIb/IIIa interaction results in a low optical density. An IC50 is calculated based on a concentration-effect curve.
Chain of GpIIb/IIIa receptor (P08514 32-887 limits assumed): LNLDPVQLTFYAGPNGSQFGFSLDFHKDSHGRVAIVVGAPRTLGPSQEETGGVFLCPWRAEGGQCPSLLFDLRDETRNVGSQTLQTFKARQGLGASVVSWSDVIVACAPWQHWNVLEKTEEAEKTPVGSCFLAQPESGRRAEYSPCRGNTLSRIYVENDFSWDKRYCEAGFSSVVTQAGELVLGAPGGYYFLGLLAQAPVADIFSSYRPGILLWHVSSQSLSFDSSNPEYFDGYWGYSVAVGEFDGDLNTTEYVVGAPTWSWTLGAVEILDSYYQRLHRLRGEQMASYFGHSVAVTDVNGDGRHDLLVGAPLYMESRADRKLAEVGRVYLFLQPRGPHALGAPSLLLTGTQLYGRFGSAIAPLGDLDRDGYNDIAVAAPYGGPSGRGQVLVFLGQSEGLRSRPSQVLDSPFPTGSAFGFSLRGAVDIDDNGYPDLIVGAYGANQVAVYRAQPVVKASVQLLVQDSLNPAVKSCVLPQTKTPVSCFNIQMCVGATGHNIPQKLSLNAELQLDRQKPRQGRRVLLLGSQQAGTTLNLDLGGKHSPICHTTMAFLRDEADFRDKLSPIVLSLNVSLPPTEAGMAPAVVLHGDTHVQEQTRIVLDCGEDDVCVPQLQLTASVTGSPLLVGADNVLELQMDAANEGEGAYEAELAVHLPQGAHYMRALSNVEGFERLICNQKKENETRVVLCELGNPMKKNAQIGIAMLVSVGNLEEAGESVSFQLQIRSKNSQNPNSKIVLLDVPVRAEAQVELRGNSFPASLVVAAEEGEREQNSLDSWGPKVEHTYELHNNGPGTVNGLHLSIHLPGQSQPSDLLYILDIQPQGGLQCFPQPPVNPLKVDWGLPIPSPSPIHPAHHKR
Chain of GpIIb/IIIa receptor (P08514 891-1039 limits assumed): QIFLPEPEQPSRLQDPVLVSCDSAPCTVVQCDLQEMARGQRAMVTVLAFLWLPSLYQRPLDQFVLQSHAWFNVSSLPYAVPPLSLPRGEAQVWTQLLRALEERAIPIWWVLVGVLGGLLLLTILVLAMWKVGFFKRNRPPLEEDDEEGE
Chain of GpIIb/IIIa receptor (P05106 27-788): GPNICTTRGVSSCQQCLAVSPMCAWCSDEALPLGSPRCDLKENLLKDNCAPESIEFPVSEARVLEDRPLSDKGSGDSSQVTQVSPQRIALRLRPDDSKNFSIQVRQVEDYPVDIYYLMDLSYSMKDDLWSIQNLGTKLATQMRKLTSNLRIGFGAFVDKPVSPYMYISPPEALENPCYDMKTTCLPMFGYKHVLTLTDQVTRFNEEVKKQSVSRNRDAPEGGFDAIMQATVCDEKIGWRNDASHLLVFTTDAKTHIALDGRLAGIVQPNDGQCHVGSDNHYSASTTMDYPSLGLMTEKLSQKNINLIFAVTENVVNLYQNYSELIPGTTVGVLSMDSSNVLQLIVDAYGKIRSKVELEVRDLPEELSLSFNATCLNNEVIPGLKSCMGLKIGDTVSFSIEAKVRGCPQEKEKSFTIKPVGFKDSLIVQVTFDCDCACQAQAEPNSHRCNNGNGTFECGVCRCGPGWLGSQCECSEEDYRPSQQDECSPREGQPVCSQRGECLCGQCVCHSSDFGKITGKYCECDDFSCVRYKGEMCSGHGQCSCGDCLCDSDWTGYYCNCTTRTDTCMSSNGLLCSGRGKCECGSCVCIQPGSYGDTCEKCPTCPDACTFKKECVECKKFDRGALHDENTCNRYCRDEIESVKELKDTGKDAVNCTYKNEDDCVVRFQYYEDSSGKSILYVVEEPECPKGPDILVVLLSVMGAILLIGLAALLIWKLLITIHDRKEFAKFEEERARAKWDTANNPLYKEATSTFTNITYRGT
The GpIIb/IIIa-Fibrinogen-Elisa is a modification of assays described in the following literature:
Nachman, R. L. & Leung, L. L. K. (1982): Complex formation of platelet membrane glycoproteins IIb and IIIa with fibrinogen. J. Clin. Invest. 69:263-269. Wright, P. S. et al. (1993): An echistatin C-terminal peptide activated GpIIbIIIa binding to fibrinogen, fibronectin, vitronectin and collagen type I and type IV. Biochem. J. 293:263-267.

Where [1] appears, read: isolated activated GpIIb/IIIa receptor on microtitre plates, read-out: IC50.

As for “(4-{3-[(Pyridin-4-ylamino)-propyl]-piperidin-1-yl}-cyclohexyl)-acetic acid [62 (page 40)]”, the IC50 under setting [1] was 300 nM.
In the case of `O=C(O)CC1(O)CCC(N2CCC(Nc3ccncc3)CC2)CC1` (stereo not shown) [Example 5], the IC50 under setting [1] was 140 nM.
With `O=C(O)CC1(O)CCC(N2CCC(CCCNc3ccncc3)CC2)CC1` (stereo not shown) [12 (page 35), (1-Hydroxy-4-{4-[3-(pyridin-4-ylamino)-propyl]-piperidin-1-yl}-cyclohexyl)-acetic acid], the IC50 under setting [1] was 200 nM.
On to `O=C(O)CC1(O)CCC(N2CCN(c3ccncc3)CC2)CC1` (stereo not drawn) [cis-1-hydroxy-4-[4-(4-pyridyl)-piperazin-1-yl]-acetic acid, reference compound], for which the IC50 (reference substance, isolated activated GpIIb/IIIa receptor, read-out: IC50 value in the above assay (comparative experiments)) came out at 2500 nM.
